Reference: US20080132505A1 (Glaxo Group Limited, priority 2004, published 2008)

Molecular target: human cannabinoid CB2 receptor (Homo sapiens, UniProt P34972)
Experiment: Cannabinoid CB2 receptor agonist activity (yeast reporter assay, FDGlu fluorescence)
Format: cell-based
Details: for EC50: EC50 value at the cloned human cannabinoid CB2 receptor; for Emax: read-out: efficacy value (Emax relative to HU210) at the cloned human cannabinoid CB2 receptor
Protocol: Determination of Cannabinoid CB2 Receptor Agonist Activity
The cannabinoid CB2 receptor agonist activity of the compounds of formula (I)-(IV) was determined in accordance with the following experimental method.
Yeast (Saccharomyces cerevisiae) cells expressing the human cannabinoid CB2 receptor were generated by integration of an expression cassette into the ura3 chromosomal locus of yeast strain MMY23. This cassette consisted of DNA sequence encoding the human CB2 receptor flanked by the yeast GPD promoter to the 5′ end of CB2 and a yeast transcriptional terminator sequence to the 3′ end of CB2. MMY23 expresses a yeast/mammalian chimeric G-protein alpha subunit in which the C-terminal 5 amino acids of Gpa1 are replaced with the C-terminal 5 amino acids of human Gαi3 (as described in Brown et al. (2000), Yeast 16:11-22). Cells were grown at 30° C. in liquid Synthetic Complete (SC) yeast media (Guthrie and Fink (1991), Methods in Enzymology, Vol. 194) lacking uracil, tryptophan, adenine and leucine to late logarithmic phase (approximately 6 OD600/ml).
Agonists were prepared as 10 mM stocks in DMSO. […] Agonist solutions in DMSO (1% final assay volume) were transferred into black, clear bottom, microtitre plates from NUNC (96- or 384-well). Cells were suspended at a density of 0.2 OD600/ml in SC media lacking histidine, uracil, tryptophan, adenine and leucine and supplemented with 10 mM 3-aminotriazole, 0.1M sodium phosphate pH 7.0, and […] fluorescein di-β-D-glucopyranoside (FDGlu). This mixture (50 ul per well for 384-well plates, 200 ul per well for 96-well plates) was added to agonist in the assay plates (Multidrop 384, Labsystems). After incubation at 30° C. for 24 hours, fluorescence resulting from degradation of FDGlu to fluorescein due to exoglucanase, an endogenous yeast enzyme produced during agonist-stimulated cell growth, was determined using a Spectrofluor microtitre plate reader (Tecan; excitation wavelength: 485 nm; emission wavelength: 535 nm). Fluorescence was plotted against compound concentration and iteratively curve fitted using a four parameter fit to generate a concentration effect value. Efficacy (Emax) was calculated from the equation
where Max[compound X] and Min[compound X] are the fitted maximum and minimum respectively from the concentration effect curve for compound X, and Max[HU210] and Min[HU210] are the fitted maximum and minimum respectively from the concentration effect curve for (6aR,10aR)-3-(1,1′-Dimethylheptyl)-6a,7,10,10a-tetrahydro-1-hydroxy-6,6-dimethyl-6H-dibenzo[b,d]pyran-9-methanol (HU210; available from Tocris). Equieffective molar ratio (EMR) values were calculated from the equation
Where EC50 [compound X] is the EC50 of compound X and EC50 [HU210] is the EC50 of HU210.

Sequence of human cannabinoid CB2 receptor (P34972 whole entry): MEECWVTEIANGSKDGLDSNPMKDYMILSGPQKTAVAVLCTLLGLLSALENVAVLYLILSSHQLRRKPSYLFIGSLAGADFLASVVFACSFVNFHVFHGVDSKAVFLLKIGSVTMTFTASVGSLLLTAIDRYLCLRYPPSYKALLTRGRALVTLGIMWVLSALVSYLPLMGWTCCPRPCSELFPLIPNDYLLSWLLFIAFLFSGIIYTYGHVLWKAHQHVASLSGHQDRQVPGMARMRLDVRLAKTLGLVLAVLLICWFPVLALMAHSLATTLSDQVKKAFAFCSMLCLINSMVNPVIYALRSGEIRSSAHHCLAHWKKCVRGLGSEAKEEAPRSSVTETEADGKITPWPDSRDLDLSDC

| SMILES | EC50 | Emax |
| --- | --- | --- |
| N#CCNC(=O)c1cnc(Nc2cccc(Cl)c2)nc1C(F)(F)F [Example 26, 2-(3-Chloro-phenylamino)-4-trifluoromethyl-pyrimidine-5-carboxylic acid cyanomethyl-amide] | 300 to 1000 nM | > 50% |
| O=C(NC1CCS(=O)(=O)CC1)c1cnc(Nc2cccc(Cl)c2Cl)nc1C(F)(F)F [Example 82, 2-(2,3-Dichlorophenylamino)-4-trifluoromethyl-pyrimidine-5-carboxylic acid (1,1-dioxo-tetrahydro-2H-thiopyran-4-yl)-amide] | 300 to 1000 nM | > 50% |
| O=C(NCC1CCC1)c1cnc(Nc2ccc(Br)cc2F)nc1C(F)(F)F [Example 229, 2-(2-Fluoro-4-bromo-phenylamino)-4-trifluoromethyl-pyrimidine-5-carboxylic acid cyclobutylmethyl-amide] | 20 to 300 nM | > 50% |
| O=C(NCC1CCCCC1)c1cnc(Nc2cc(Cl)ccc2F)nc1C(F)(F)F [Example 168, 2-(5-Chloro-2-fluorophenylamino)-4-trifluoromethyl-pyrimidine-5-carboxylic acid cyclohexylmethyl-amide] | 20 to 300 nM | > 50% |
| O=C(NC1CCC1)c1cnc(Nc2c(Cl)cccc2Cl)nc1C(F)(F)F [Example 51, 2-(2,6-Dichlorophenylamino)-4-trifluoromethylpyrimidine-5-carboxylic acid N-cyclobutylamide] | 20 to 300 nM | > 50% |
| O=C(NCC1CCOCC1)c1cnc(Nc2cc(F)cc(C(F)(F)F)c2)nc1C(F)(F)F [Example 180, 2-(3-Fluoro-5-(trifluoromethyl)phenylamino)-4-trifluoromethyl-pyrimidine-5-carboxylic acid (tetrahydropyran-4-ylmethyl)-amide] | 20 to 300 nM | > 50% |
| O=C(NCc1ccc(F)cc1)c1cnc(Nc2cccc(Cl)c2F)nc1C(F)(F)F [Example 348, 2-(3-Chloro-2-fluoro-phenylamino)-4-trifluoromethyl-pyrimidine-5-carboxylic acid 4-fluoro-benzylamide] | 20 to 300 nM |  |
| O=C(NCC1CCCCC1)c1cnc(Nc2ccc(F)cc2F)nc1C(F)(F)F [Example 221, 2-(2,4-Difluoro-phenylamino)-4-trifluoromethyl-pyrimidine-5-carboxylic acid cyclohexylmethyl-amide] | 20 to 300 nM | > 50% |
| Cc1c(Cl)cccc1Nc1ncc(C(=O)NCC2CCCCC2)c(C(F)(F)F)n1 [Example 93, 2-(3-Chloro-2-methyl-phenylamino)-4-trifluoromethyl-pyrimidine-5-carboxylic acid cyclohexylmethyl-amide] | 300 to 1000 nM | > 50% |
| O=C(NCC1CCC1)c1cnc(Nc2cccc(Cl)c2Cl)nc1C(F)(F)F [Example 200, 2-(2,3-Dichlorophenylamino)-4-trifluoromethyl-pyrimidine-5-carboxylic acid cyclobutylmethyl-amide] | 20 to 300 nM | > 50% |
| Cc1cccc(Nc2cc(C(C)C)c(C(=O)NCc3ccc(F)cc3)cn2)c1C#N [Example 395, 6-(2-Cyano-3-methyl-phenylamino)-N-(4-fluoro-benzyl)-4-isopropyl-nicotinamide] |  | > 50% |
| Cc1c(Cl)cccc1Nc1ncc(C(=O)NCC2CCOCC2)c(C(F)(F)F)n1 [Example 185, 2-(3-Chloro-2-methylphenylamino)-4-trifluoromethyl-pyrimidine-5-carboxylic acid (tetrahydropyran-4-ylmethyl)-amide] | 20 to 300 nM | > 50% |
| COc1cc(Nc2ncc(C(=O)NCC3CCCCC3)c(C(F)(F)F)n2)ccc1Cl [Example 245, 2-(4-Chloro-3-methoxyphenylamino)-4-trifluoromethyl-pyrimidine-5-carboxylic acid cyclohexylmethyl-amide] | 20 to 300 nM | > 50% |
| O=C(NCC1CCCC1)c1cnc(Nc2ccc(Cl)cc2Cl)nc1C(F)(F)F [Example 41, 2-(2,4-Dichlorophenylamino)-4-trifluoromethylpyrimidine-5-carboxylic acid cyclopentylmethyl-amide] | 20 to 300 nM | > 50% |
| O=C(NCc1ccc(F)cc1)c1cnc(Nc2ccc(F)c(Cl)c2)nc1C(F)(F)F [Example 347, 2-(3-Chloro-4-fluoro-phenylamino)-4-trifluoromethyl-pyrimidine-5-carboxylic acid 4-fluoro-benzylamide] | 20 to 300 nM |  |
| O=C(c1cnc(Nc2cccc(Br)c2)nc1C(F)(F)F)N1CCCCC1 [Example 12] |  | > 50% |
| O=C(NCC1(O)CCCCC1)c1cnc(Nc2cccc(Br)c2)nc1C(F)(F)F [Example 165, 2-(3-Bromophenylamino)-4-trifluoromethyl-pyrimidine-5-carboxylic acid (1-hydroxycyclohexylmethyl)-amide] | 20 to 300 nM | > 50% |
| CN(Cc1ccccc1)C(=O)c1cnc(Nc2cccc(F)c2)nc1C(F)(F)F [Example 301, 2-(3-Fluoro-phenylamino)-4-trifluoromethyl-pyrimidine-5-carboxylic acid N-benzyl-N-methyl-amide] | 300 to 1000 nM | > 50% |
| O=C(NCC1CCCC1)c1cnc(Nc2cccc(Cl)c2F)nc1C(F)(F)F [Example 248, 2-(3-Chloro-2-fluoro-phenylamino)-4-trifluoromethyl-pyrimidine-5-carboxylic acid cyclopentylmethyl-amide] | 20 to 300 nM | > 50% |
| O=C(NCc1ccccc1)c1cnc(Nc2ccc(Cl)c(Cl)c2)nc1C(F)(F)F [Example 274, 2-(3,4-Dichlorophenylamino)-4-trifluoromethylpyrimidine-5-carboxylic acid benzyl-amide] | 20 to 300 nM |  |
| O=C(NCC1CCOCC1)c1cnc(Nc2cc(Br)cc(C(F)(F)F)c2)nc1C(F)(F)F [Example 179, 2-(3-Bromo-5-(trifluoromethyl)phenylamino)-4-trifluoromethyl-pyrimidine-5-carboxylic acid (tetrahydropyran-4-ylmethyl)-amide] | 20 to 300 nM | > 50% |
| O=C(NCc1ccc(F)cc1)c1cnc(Nc2cc(F)cc(F)c2)nc1C(F)(F)F [Example 350, 2-(3,5-Difluoro-phenylamino)-4-trifluoromethyl-pyrimidine-5-carboxylic acid 4-fluoro-benzylamide] | 20 to 300 nM |  |
| O=C(NCC1CCOCC1)c1cnc(Nc2cccc(C(F)(F)F)c2F)nc1C(F)(F)F [Example 181, 2-(2-Fluoro-3-(trifluoromethyl)phenylamino)-4-trifluoromethyl-pyrimidine-5-carboxylic acid (tetrahydropyran-4-ylmethyl)-amide] | 20 to 300 nM | > 50% |
| O=C(NCC1CCOCC1)c1cnc(Nc2ccc(F)cc2Cl)nc1C(F)(F)F [Example 233, 2-(2-Chloro-4-fluoro-phenylamino)-4-trifluoromethyl-pyrimidine-5-carboxylic acid (tetrahydro-pyran-4-ylmethyl)-amide] | 20 to 300 nM | > 50% |
| O=C(NCC1CCCCC1)c1cnc(Nc2ccc(F)c(Cl)c2)nc1C(F)(F)F [Example 166, 2-(3-Chloro-4-fluorophenylamino)-4-trifluoromethyl-pyrimidine-5-carboxylic acid cyclohexylmethyl-amide] | 20 to 300 nM | > 50% |
| O=C(NCC1CCCC1)c1cnc(Nc2cccc(Cl)c2Cl)nc1C(F)(F)F [Example 40, 2-(2,3-Dichlorophenylamino)-4-trifluoromethylpyrimidine-5-carboxylic acid cyclopentylmethyl-amide] | 20 to 300 nM | > 50% |
| O=C(NCc1ccc(F)c(F)c1)c1cnc(Nc2cccc(Cl)c2)nc1C(F)(F)F [Example 346, 2-(3-Chloro-phenylamino)-4-trifluoromethyl-pyrimidine-5-carboxylic acid 3,4-difluoro-benzylamide] | 20 to 300 nM |  |
| COc1cccc(Nc2ncc(C(=O)NCc3ccccc3)c(C(F)(F)F)n2)c1 [Example 295, 2-(3-Methoxy-phenylamino)-4-trifluoromethyl-pyrimidine-5-carboxylic acid benzylamide] | 300 to 1000 nM | > 50% |
| O=C(NCC1CCCCC1)c1cnc(Nc2ccc(Br)cc2Cl)nc1C(F)(F)F [Example 225, 2-(2-Chloro-4-bromo-phenylamino)-4-trifluoromethyl-pyrimidine-5-carboxylic acid cyclohexylmethyl-amide] | 20 to 300 nM | > 50% |
